Data on one compound can be found in paper PMC8752633 (2022).

The subject of assay [1] is Can preQ1-II riboswitch WT (RNA, riboswitch) UGUGGUUCGCAACCAUCCCACAUAAAAAAACUAG
The assay can be described thus: X-ray crystallography, 2.60 Å. As to conditions: 80 mM K+ (KCl), 12 mM Na+ (NaCl), 2 mM hexammine cobalt(III); 40 mM sodium cacodylate pH 5.5, 30% MPD, 20 °C; folded with Mg2+.

Assay [2] shares this test system. The assay can be described thus: ITC (PEAQ-ITC, single-sites model). Particulars: 100 mM Na+ (NaCl), 4 mM Mg2+; 50 mM Na-HEPES pH 7.0, 25 °C; apparent; average over two cooperative sites.
Assay [3] relates to Hin riboswitch WT (RNA, riboswitch) GUAGUUCGCAAACCUCCUACAAUAAAAAACUAG
The assay can be described thus: ITC (PEAQ-ITC, single-sites model). Particulars: 100 mM Na+ (NaCl), 4 mM Mg2+; 50 mM Na-HEPES pH 7.0, 25 °C; apparent; average over two cooperative sites.

The test system of assay [4] is Ngo riboswitch WT (RNA, riboswitch) CGCGGUUCGCAAACCUCCCGCGUUACCAAAACUAG
The assay can be described thus: ITC (PEAQ-ITC, single-sites model). Particulars: 100 mM Na+ (NaCl), 4 mM Mg2+; 50 mM Na-HEPES pH 7.0, 25 °C; apparent; average over two cooperative sites.

Assay [5] concerns Can preQ1-II riboswitch C31U (RNA, riboswitch) UGUGGUUCGCAACCAUCCCACAUAAAAAAAUUAG
The assay can be described thus: ITC (VP-ITC, two interdependent non-equivalent sites model). As to conditions: 100 mM Na+ (NaCl), 4 mM Mg2+; 50 mM Na-HEPES pH 7.0, 25 °C; macroscopic, first binding event (KD2 10.26 µM).

Assay [6] deals with Can preQ1-II riboswitch C17U (RNA, riboswitch) UGUGGUUCGCAACCAUUCCACAUAAAAAAACUAG
The description is as above. Particulars: 100 mM Na+ (NaCl), 4 mM Mg2+; 50 mM Na-HEPES pH 7.0, 25 °C; macroscopic, second binding event (KD1 3.13 µM).

On to `NCc1c[nH]c2nc(N)[nH]c(=O)c12`, for which the binding result in assay [1] is recorded as “yes”. Also, the “KD, app” value in assay [2] came out at 32.0 ± 2.0 nM; in assay [3], 52.9 ± 0.2 nM; in assay [4], 50.5 ± 1.3 nM. Also, the KD1 in assay [5] is 6.64 µM. Further, the KD2 in assay [6] amounted to 1.30 µM.
